From patent US12290564B2, “Methods and apparatuses for treating tumors” (RenovoRx, Inc., priority 2017, dated 2025)

System: locally advanced pancreatic cancer
Experiment: Post-market registry study: intra-arterial (TAMP) delivery of gemcitabine with the RenovoCath RC120 catheter
Assay type: in vivo, human
Experimental: A post-market registry study was conducted to assess patient survival and clinical outcomes using the RenovoCath™ RC120 catheter (RenovoRx, Los Altos, Calif.) in a clinical, prospective observational setting when used to deliver a chemotherapeutic to the pancreas as described in Table 1. [table] […] An interventional radiologist used the RenovoCath™ RC 120 catheter to optimize drug delivery to the tumor(s). At the conclusion of the case, the femoral artery arteriotomy was sealed and patient monitored as per standard institutional protocol. All patients enrolled during the two-year registry enrollment period were followed periodically for survival outcome. Patients were contacted by telephone at the following intervals after the final intra-arterial treatment: 6 months±30 days, 1 year±30 days and 2 years±30 days. Patients were assessed for serious adverse events with specific attention to events related to local delivery of chemotherapeutic agents to the pancreas and device performance. FIG. 10 is a graph 1000 illustrating the effect of the TAMP technique on patient survival after radiation therapy compared with the effect of the TAMP technique with no radiation therapy. Fifteen patients with locally advanced pancreatic cancer were treated with gemcitabine in a dose-escalated protocol administered in four cycles using the TAMP technique. […]

Q: Which results are given for `Nc1ccn([C@@H]2O[C@H](CO)[C@@H](O)C2(F)F)c(=O)n1` [gemcitabine]?
A: survival rates (survival percentage) of patients (gemcitabine by TAMP (eight treatments, or more than two treatments) compared with systemic infusion of gemcitabine (Chauffert et al. 2008), FIG. 9): greater than the survival rates of the patients given systemic infusion of the same drug; patient survival (gemcitabine by TAMP, dose-escalated, four cycles, patients with prior radiation vs no prior treatment or only prior systemic chemotherapy, FIG. 10): significant improvement in survival
